Read-outs that look alike come from different tables or passages of the source.
How the values were obtained:
[1] = system: IL-23 stimulated Kit225 T cells with a stably-integrated STAT-dependent luciferase reporter; test: Kit225 T cell assay, IL-23 stimulated STAT-dependent luciferase reporter; format: cell-based, human
Experimental: (§1) Kit225 T cells with a stably-integrated STAT-dependent luciferase reporter were plated in RPMI (GIBCO) containing 10% heat-inactivated FBS (GIBCO) and 100 U/mL PenStrep (GIBCO). The cells were then stimulated with either 20 ng/mL human recombinant IL-23 or 200 U/mL human recombinant IFNα (PBL InterferonSource) for 5-6 hours. Luciferase expression was measured using the STEADY-GLO Luciferase Assay System (PROMEGA) according to the manufacturer's instructions.

[2] = molecular target: T1, recombinantly expressed His-tagged protein corresponding to amino acids 575-869 of human Tyk2 (Homo sapiens, UniProt P29597); test: Probe displacement assay (scintillation proximity, tritiated probe); format: binding; conditions: His-tagged Tyk2 (575-869) 2.5 nM, 40 nM radiolabeled probe, 30 minutes at room temperature
T1 construct: made in house
T1 sequence (P29597 with tags, fused parts or gaps): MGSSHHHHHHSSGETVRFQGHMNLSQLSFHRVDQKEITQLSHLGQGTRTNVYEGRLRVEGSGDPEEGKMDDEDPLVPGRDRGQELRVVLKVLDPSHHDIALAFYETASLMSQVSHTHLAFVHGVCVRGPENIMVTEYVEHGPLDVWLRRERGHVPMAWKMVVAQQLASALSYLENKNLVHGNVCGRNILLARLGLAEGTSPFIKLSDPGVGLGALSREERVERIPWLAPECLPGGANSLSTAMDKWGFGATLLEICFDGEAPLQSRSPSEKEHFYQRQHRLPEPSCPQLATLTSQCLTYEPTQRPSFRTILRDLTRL
Experimental: The preparation of radiolabeled probe, (R)—N-(1-(3-(8-methyl-5-(methylamino)-8H-imidazo[4,5-d]thiazolo[5,4-b]pyridin-2-yl)phenyl)ethyl)-2-([^3H]methylsulfonyl)benzamide, was performed as described below: […]

[3] = system: IFNα stimulated Kit225 T cells with a stably-integrated STAT-dependent luciferase reporter; test: Kit225 T cell assay, IFNα stimulated STAT-dependent luciferase reporter; format: cell-based, human
Experimental: as §1

[4] = Homo sapiens, KIT225, 20 ng/mL human recombinant IL-23, 5-6 hours, luciferase, read-out: IL-23 Kit225 Reporter, (IC50)
[5] = Homo sapiens, KIT225, 200 U/mL human recombinant IFNα, 5-6 hours, luciferase, read-out: IFNa Kit225 Reporter, (IC50)
[6] = Homo sapiens, KIT225, read-out: IFNa Kit225 Reporter, (IC50, uM)
[7] = KIT225, 20 ng/mL human recombinant IL-23, 5-6 hours, luciferase, read-out: IL-23 Kit225 Reporter, (IC50)
[8] = KIT225, 200 U/mL human recombinant IFNα, 5-6 hours, luciferase, read-out: IFNa Kit225 Reporter, (IC50)

| IC50 [1, 4] [µM] | EC50 [2] [nM] | IC50 [3, 5] [µM] | IC50 [1, 7] [µM] | IC50 [3, 8] [µM] | SMILES | IC50 ([1]; Homo sapiens, KIT225, read-out: IL-23 Kit225 Reporter, (IC50, uM)) [µM] | IC50 [3, 6] [µM] |
| --- | --- | --- | --- | --- | --- | --- | --- |
| 0.5 | 7.29 | 0.5 | – | – | CNc1cc(Nc2cccc(OC(F)(F)F)c2)nn2c(C(=O)NC3CCC3)cnc12 [Example 5] | – | – |
| – | 4.21 | – | 0.12 | 0.09 | CNc1cc(Nc2cc(F)ccc2F)nn2c(C(N)=O)cnc12 [Example 6] | – | – |
| – | 250 | 3.3 | – | – | CNc1cc(Nc2cc(C)cc(C)c2)nn2c(C(=O)N3CC(O)C3)cnc12 [Example 7] | – | – |
| 0.25 | 5.91 | 0.17 | – | – | CNc1cc(Nc2cc(C)cc(F)c2)nn2c(C(=O)NCC(C)(C)O)cnc12 [Example 9] | – | – |
| – | 7.57 | – | 0.16 | 0.08 | CNc1cc(N2CCc3ccccc32)nn2c(C(=O)NC3CCC3)cnc12 [Example 10] | – | – |
| – | 90 | – | 2.9 | 2.27 | CNc1cc(N2CCc3ccccc32)nn2c(C(=O)NCC(C)(C)O)cnc12 [Example 11] | – | – |
| – | 7.03 | – | 0.37 | 0.26 | CNc1cc(Nc2cc(F)cc(F)c2F)nn2c(C(=O)NCC(C)(C)O)cnc12 [Example 14] | – | – |
| – | 20 | – | 0.56 | 0.4 | CNc1cc(Nc2cc(F)cc(F)c2)nn2c(C(=O)NCC(C)(C)CO)cnc12 [Example 15] | – | – |
| – | 7.04 | – | 0.24 | 0.09 | CNc1cc(Nc2cc(F)cc(F)c2OC)nn2c(C(=O)NCC(C)(C)C)cnc12 [Example 16] | – | – |
| – | 3.72 | – | 0.04 | 0.01 | CNc1cc(Nc2cc(F)cc(F)c2F)nn2c(C(=O)NCC(C)(C)CO)cnc12 [Example 18] | – | – |
| – | 5.86 | – | 0.27 | 0.17 | CNc1cc(Nc2c(F)c(F)cc(F)c2F)nn2c(C(N)=O)cnc12 [Example 19] | – | – |
| – | 40 | – | 0.42 | 0.66 | CNc1cc(Nc2cccc(-c3ccc(OC(F)(F)F)cc3)n2)nn2c(C(=O)NC3(C#N)CC3)cnc12 [Example 23] | – | – |
| – | 7.25 | – | 0.04 | 0.05 | CNc1cc(Nc2cccnc2OC)nn2c(C(=O)NC3(C#N)CC3)cnc12 [Example 24] | – | – |
| – | 6.05 | – | 0.05 | 0.09 | CNc1cc(Nc2cccnc2OC)nn2c(C(=O)NCCO)cnc12 [Example 25] | – | – |
| – | 60 | – | 0.33 | 0.45 | CNc1cc(Nc2cccnc2-n2cccn2)nn2c(C(=O)NC3CCCC3O)cnc12 (stereo not shown) [Example 28] | – | – |
| – | 20 | – | 0.35 | 0.21 | CNc1cc(Nc2cccnc2-n2cccn2)nn2c(C(=O)NCCO)cnc12 [Example 30] | – | – |
| – | 50 | – | 0.54 | 0.31 | CNc1cc(Nc2cccnc2-n2cccn2)nn2c(C(=O)N[C@@H](C)CO)cnc12 [Example 32] | – | – |
| – | 190 | – | 12.5 | 12.5 | N#Cc1cc(Nc2cc(NC3CC3)c3ncc(C(=O)NC4CC4)n3n2)cc(C(F)(F)F)c1 [Example 33] | – | – |
| – | 350 | – | 3.33 | 12.5 | CCNC(=O)c1cnc2c(NC3CC3)cc(Nc3cc(C#N)cc(C(F)(F)F)c3)nn12 [Example 36] | – | – |
| – | 60 | – | 1.46 | 1.39 | O=C(NC1CCC1)c1cnc2c(NC3CC3)cc(Nc3cc(F)cc(F)c3F)nn12 [Example 44] | – | – |
| – | 70 | – | 3.74 | 2.9 | Cc1cc(C)cc(Nc2cc(NCC3CC3)c3ncc(C(N)=O)n3n2)c1 [Example 51] | – | – |
| – | 30 | – | 1.25 | 1.17 | CCCNc1cc(Nc2cc(C)cc(C)c2)nn2c(C(N)=O)cnc12 [Example 54] | – | – |
| – | 80 | – | 2.38 | 3.62 | CCCCCNc1cc(Nc2cc(C)cc(C)c2)nn2c(C(N)=O)cnc12 [Example 55] | – | – |

Further lines, the compound ahead of its results:

| SMILES | IC50 [1, 4] [µM] | EC50 [2] [nM] | IC50 [3, 5] [µM] | IC50 [1, 7] [µM] | IC50 [3, 8] [µM] | IC50 ([1]; Homo sapiens, KIT225, read-out: IL-23 Kit225 Reporter, (IC50, uM)) [µM] | IC50 [3, 6] [µM] |
| --- | --- | --- | --- | --- | --- | --- | --- |
| CNc1cc(Nc2cc(C)cc(F)c2)nn2c(C(=O)NC3CC3)cnc12 [Example 2] | 0.03 | 3.24 | 0.03 | – | – | – | – |
| CNc1cc(Nc2cc(C)cc(F)c2)nn2c(C(=O)N3CCC3)cnc12 [Example 3] | – | 60 | – | – | – | 2.82 | 1.92 |
| CNc1cc(Nc2cc(F)cc(C(F)(F)F)c2)nn2c(C(=O)NC3CCC3)cnc12 [Example 4] | 0.81 | 6.85 | 0.32 | – | – | – | – |
| CNc1cc(Nc2cc(F)ccc2F)nn2c(C(=O)NC3CC3)cnc12 [Example 8] | 0.03 | 3.61 | 0.03 | – | – | – | – |
| CNc1cc(Nc2cc(F)cc(F)c2F)nn2c(C(=O)NC3CC3)cnc12 [Example 13] | 0.05 | 2.97 | 0.03 | – | – | – | – |
| CNc1cc(Nc2c(F)c(F)cc(F)c2F)nn2c(C(=O)NC3CC3)cnc12 [Example 20] | 0.06 | 3.97 | 0.05 | – | – | – | – |
| CNc1cc(Nc2c(F)c(F)cc(F)c2F)nn2c(C(=O)NCC(C)(C)O)cnc12 [Example 21] | – | 30 | – | 0.39 | 0.21 | – | – |
| CNc1cc(Nc2ccccn2)nn2c(C(=O)N[C@@H]3C[C@@H]3F)cnc12 [Example 22] | 0.25 | 5.46 | 0.18 | – | – | – | – |
| CNc1cc(Nc2cccnc2OC)nn2c(C(=O)NCCF)cnc12 [Example 26] | – | 2.93 | – | 0.09 | 0.06 | – | – |
| CNc1cc(Nc2cccnc2OC)nn2c(C(=O)NC3CCC3)cnc12 [Example 27] | 0.04 | 2.7 | 0.01 | – | – | – | – |
| CNc1cc(Nc2cccnc2-n2cccn2)nn2c(C(=O)NC(C)CO)cnc12 (stereo not shown) [Example 29] | – | 40 | – | 0.27 | 0.41 | – | – |
| CNc1cc(Nc2cccnc2-n2cccn2)nn2c(C(=O)NCC(C)(C)O)cnc12 [Example 31] | – | 130 | – | 0.58 | 2.58 | – | – |
| N#Cc1cc(Nc2cc(NC3CC3)c3ncc(C(=O)NCCO)n3n2)cc(C(F)(F)F)c1 [Example 35] | – | 160 | – | 8.07 | 8.48 | – | – |
| Cc1cc(F)cc(Nc2cc(NC3CC3)c3ncc(C(=O)NC4CC4)n3n2)c1 [Example 38] | 0.79 | 20 | 0.58 | – | – | – | – |
| NC(=O)c1cnc2c(NC3CC3)cc(Nc3cccc(F)c3)nn12 [Example 47] | – | 40 | – | 1.12 | 1.13 | – | – |
| Cc1cc(C)cc(Nc2cc(NCCCN(C)C)c3ncc(C(N)=O)n3n2)c1 [Example 50] | – | 70 | – | 2.32 | 1.28 | – | – |
| Cc1cc(C)cc(Nc2cc(NCCO)c3ncc(C(N)=O)n3n2)c1 [Example 52] | – | 70 | – | 7.04 | 12.8 | – | – |
| Cc1cc(C)cc(Nc2cc(NCC(C)C)c3ncc(C(N)=O)n3n2)c1 [Example 53] | – | 200 | – | 9.72 | 12.4 | – | – |
| CNc1cc(Nc2cccnc2-n2ccc(C(F)(F)F)n2)nn2c(C(=O)NC3CC3)cnc12 [Example 99] | – | 570 | – | – | – | – | – |
| CNc1cc(Nc2cccnc2C(=O)NCCOC)nn2c(C(=O)NC3CC3)cnc12 [Example 108] | – | 7.59 | – | – | – | – | – |
| CNc1cc(Nc2cccc(-c3ccc(C(F)(F)F)cc3F)c2)nn2c(C(=O)NC[C@@](C)(O)CO)cnc12 [Example 113] | – | 7.62 | – | 0.75 | – | – | – |
| CNc1cc(Nc2cc(C)cc(C)c2)nn2c(C(=O)NC3CC3)cnc12 [Example 114] | – | – | – | – | – | – | 0.1 |
